Experimental data from patent publication US20230027495A1, “METHODS OF TREATING CANCER WITH A COMBINATION OF AN ANTI-PD-1 ANTIBODY AND AN ANTI-TISSUE FACTOR ANTIBODY-DRUG CONJUGATE” (Genmab A/S, priority 2019, published 2023).

Test system: human peripheral blood mononuclear cells (PBMCs)
Assay: T cell activation in CSFE labeled human PBMCs fed drug-killed MDA-MB-231 cells, with or without pembrolizumab
Assay type: cell-based
Conditions: PBMCs fed drug-exposed MDA-MB-231 cells, 48 hours
Source text: Induction of the innate immune response following exposure to cancer cells undergoing ICD sets up secondary T cell activation, which can be enhanced by concomitant pembrolizumab treatment.

tisotumab
did not elicit these responses: T cell proliferation (CSFE dilution) | production of IFNγ | production of IL12p70
